Source: US20150247149A1, “Detecting and Treating Liver Damage” (The Regents of the University of California, priority 2012, published 2015)

Legend:
[1] = system: VNN1; test: VNN1 expression in HepG2 and HepG2-derived MPs (Western blotting, flow cytometry, QPCR); assay type: cell-based, human; conditions: HepG2 exposed to 0.25 mM FFA
Experimental: HepG2 were trypsinized and 8×10^5 cells were seeded in a 6-well plate. To knockdown VNN1 or PPARα in hepatocytes, HepG2 were incubated with 50 nM of silencing RNA (siRNA) for VNN1 or PPARα and control siRNA (Ctrl siRNA) dissolved in Lipofectamine 2000 (Life Technologies, Carlsbad, Calif., USA). Transfection was performed according to the manufacturer instructions. After 48 h post transfection, cells were treated with 0.25 mM of palmitic acid for 24 h and microparticles were isolated from the supernatant by ultracentrifugation. The efficiency of transfection has been confirmed in hepatocytes and microparticles by Western blotting as described in the “Protein analysis” paragraph. […] In vivo VNN1 knockdown experiments during experimental NASH were assessed by weekly injection of VNN1 stealthRNA (Life Technology), control siRNA (Ctrl siRNA) or PBS as vehicle (mock) in C57BL/6 mice fed with the MCD diet for 6 weeks. […]
Tissue (liver, intestine, spleen and kidney) from MCD- and MCS-fed mice (Casp-3−/−, WT, treated with VNN1 siRNA and controls) was homogenized using the FastPrep 24 bead homogenization system. […] The concentration and purity of RNA was assessed by NanoDrop (Thermo Scientific). Quantitative Real time PCR was performed on a BioRad Cycler (BioRad) by using SYBRGreen real time PCR master mix (Kapabiosystem, Woburn, Mass., USA) according to the manufacturer instructions. […]

[2] = system: HUVECs; test: HUVEC migration (Boyden's chamber chemotaxis, wound healing); assay type: cell-based, human; conditions: supernatants from hepatocytes incubated with FFA up to 24 h; VEGF-A positive control
Experimental: In vitro migration studies have been performed by using human umbilical cell endothelial cells (HUVECs). Wound healing assay was performed to analyze chemokinesis (non-oriented migration) by using collagen-coated 6-well culture plate, where a silicon elastomer (PDMS) strip was placed vertically to the bottom of every well to create the artificial wound. HUVECs were plated and grown until reaching the complete confluence. HUVECs were treated with EBM-2 supplemented with 100 ng/mL of VEGF (Peprotech, Rocky Hill, N.J., USA), hepatocytes-derived MPs, MP-free supernatant or supernatant collected after 24 hours of treatment with FFAs. The strips were removed carefully and migration of cells was detected by a confocal microscope, capturing one picture per field every 10 minutes for 48 hours. Mitomycin (1 μg/ml) was used to inhibit cell proliferation during wound healing assay. Data were analyzed by using Wimscratch software (Wimasis, Munich, Germany) in order to get the total cell-covered area (pixel). Boyden's chamber assay was performed to analyze chemotaxis (oriented migration) by using cell culture inserts 8 μm pore size (Millipore, Billerica, Mass., USA) and 24-well plate. Each well was filled with 500 μl of serum free EBM-2 media in presence or absence of the following chemoattractants: 100 ng/mL VEGF; hepatocytes-derived MPs; MP-free supernatant or conditioned supernatant. The inserts were placed on top of each well and 150 μl of cell suspension (5×10^4 cells) was added. Plates were incubated overnight at 37° C., and then the filters were removed and stained with Vectashield mounting medium with 4′,6-diamino-2-phenylindole (DAPI) (Vector Labs, Burlingame, Calif., USA).
Migrated cells were detected with a fluorescence microscope and number per field of their nuclei was counted. For the ex vivo studies, PFP isolated from different groups of mice (chow, HF/HCarb, MCD fed mice and mice injected with control siRNA, VNN1 siRNA or PBS as vehicle) were ultracentrifuged at 100,000 g for 1 h at 10° C. to pellet the blood MPs.

endothelial cell oriented (chemotaxis) and non-oriented migration induced by cell-free supernatants of FFA-treated hepatocytes [2] | Structure (SMILES) | VNN1 expression in MPs from FFA-treated cells (Western blot) [1]
not | CCCCCCCC/C=C\CCCCCCCC(=O)O [oleic acid] | not
marked increase | CCCCCCCCCCCCCCCC(=O)O [palmitic acid] | expressed
